Source: patent US5830917A, “L-N^6 -(1-iminoethyl) lysine derivatives useful as nitric oxide synthase inhibitors” (G. D. Searle & Co., priority 1995, dated 1998)
Counter-ions that a name gives are not always drawn.

Key:
[1] = target: T1, human endothelial constitutive NOS (hecNOS) (Homo sapiens, UniProt P29474); experiment: Citrulline Assay for Nitric Oxide Synthase, hecNOS; type: biochemical; settings: 37° C., 15 minutes, with calmodulin 40-100 nM
T1 construct: made in house; host or cells: insect cells, baculovirus vector
Experimental: (§1) Citrulline Assay for Nitric Oxide Synthase
(§2) Nitric oxide synthase activity was measured by monitoring the conversion of L-[2,3-3H]-arginine to L-[2,3-3H]-citrulline (1,2). The cDNA for human inducible NOS (hiNOS) was isolated from a λcDNA library made from RNA extracted from a colon sample from a patient with ulcerative colitis; human endothelial constitutive NOS (hecNOS) was isolated from a λcDNA library made from RNA extracted from human umbilical vein endothelial cells (HUVEC); and human neuronal constitutive NOS (hncNOS) was isolated from a λcDNA library made from RNA extracted from human cerebellum from a cadaver. The recombinant enzymes were expressed in insect cells using a baculovirus vector. Enzyme activity was isolated from cell extracts and partially purified by DEAE-Sepharose chromatography (2). Enzyme and inhibitors were added to give a volume of 50 μL in 50 mM Tris (pH 7.6) and the reaction initiated by the addition of 50 μL of a solution containing 50 mM Tris (pH 7.6), 2.0 mg/mL bovine serum albumin, 2.0 mM DTT, 4.0 mM CaCl2, 20 μM FAD, 100 μM tetrahydrobiopterin, 0.4-2.0 mM NADPH and 60 μM L-arginine containing 0.9 μCi of L-[2,3-3H]-arginine. […] The [3H]-citrulline was separated by chromatography on Dowex 50W X-8 cation exchange resin and radioactivity quantified with a liquid scintillation counter.

[2] = target: T2, human inducible NOS (hiNOS) (Homo sapiens, UniProt P35228); experiment: Citrulline Assay for Nitric Oxide Synthase, hiNOS; type: biochemical; settings: 37° C., 15 minutes, L-[2,3-3H]-arginine to citrulline
T2 construct: made in house; host or cells: insect cells, baculovirus vector
Experimental: as §1, §2

[3] = target: T3, human neuronal constitutive NOS (hncNOS) (Homo sapiens, UniProt P29475); experiment: Citrulline Assay for Nitric Oxide Synthase, hncNOS; type: biochemical; settings: 37° C., 15 minutes, with calmodulin 40-100 nM
T3 construct: made in house; host or cells: insect cells, baculovirus vector
Experimental: as §1, §2

[4] = tested on: constitutive and the inducible NO synthase; settings: background statement; cited from earlier work

Compound	IC50 [1]	IC50 [2]	IC50 [3]	selectivity between constitutive and inducible NO synthase [4]
CC(=N)NCCCC[C@H](N)CNS(C)(=O)=O [Example 3, N-[5S-amino-6-[(methylsulfonyl)amino]hexyl]ethanimidamide, dihydrochloride]	6620 µM	106 µM	837 µM	
CC(=N)NCCCC[C@H](N)CNC(=N)N [Example 2, N-[5S-amino-6-[(aminoiminomethyl)amino]hexyl]ethanimidamide, trihydrochloride]	479 µM	22 µM	35 µM	
CN=C(N)NCCC[C@H](N)C(=O)O [L-NMMA, L-N-monomethyl-arginine]				non-selective
